Earlier results as cited in patent US7192931B2, “Treatment of demyelinating diseases” (Neuren Pharmaceuticals Ltd., priority 2000, dated 2007).

Assays:
hippocampus neurons = settings: Saura et al., 1999; cited from earlier work
[1] = test system: N-methyl-D-aspartate (NMDA) receptor; settings: U.S. Pat. No. 5,804,550; cited from earlier work

Gly-Pro-Glu [GPE]
neuronal death in the hippocampus injured by NMDA (hippocampus neurons): prevents neuronal death
glutamate binding to the NMDA receptor [1]: inhibits glutamate binding
